# Laboratory results published in publication PMC3059353 (Biochemistry, 2011).
# Biological target: T1, adenine deaminase (ADE) (Escherichia coli, UniProt P31441)
# T1 sequence (P31441 1-588): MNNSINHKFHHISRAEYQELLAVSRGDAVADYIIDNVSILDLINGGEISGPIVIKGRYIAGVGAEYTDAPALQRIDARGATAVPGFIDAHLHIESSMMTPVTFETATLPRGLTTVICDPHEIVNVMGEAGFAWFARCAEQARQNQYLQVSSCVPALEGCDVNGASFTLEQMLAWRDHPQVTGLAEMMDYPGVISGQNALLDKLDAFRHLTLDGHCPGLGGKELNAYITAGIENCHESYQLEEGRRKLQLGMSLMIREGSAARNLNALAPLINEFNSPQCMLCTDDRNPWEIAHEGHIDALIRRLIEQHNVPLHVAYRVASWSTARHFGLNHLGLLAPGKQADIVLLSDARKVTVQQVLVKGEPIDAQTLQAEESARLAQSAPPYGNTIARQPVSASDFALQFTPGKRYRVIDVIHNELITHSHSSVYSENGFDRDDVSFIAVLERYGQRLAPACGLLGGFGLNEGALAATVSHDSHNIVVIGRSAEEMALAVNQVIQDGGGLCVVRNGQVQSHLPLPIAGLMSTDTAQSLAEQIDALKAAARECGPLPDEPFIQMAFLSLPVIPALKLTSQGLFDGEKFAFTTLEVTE
# Experiment: GDH-coupled adenine deamination assay after […] h incubation with Mn/Mn-ADE
# Format: biochemical
smiles,measurement,value
Clc1ncnc2[nH]cnc12 [6-chloropurine],Ki,130 ± 15 nM
